Patent US11179393B2, “Methods of treating or preventing preterm labor” (priority 2014, dated 2021)

Test system: muscarinic receptor
Experiment: Test on salivary secretion in rat (oxotremorine-induced), compared with rhythmic bladder contraction test
Assay type: in vivo
Conditions: anesthetized Wistar rat; ID50 = 50% inhibition of saliva, ED30 = 30% inhibition of bladder contraction
Procedure: a. Test on Rhythmic Bladder Contraction in Rat
A female Wistar rat (130-200 g) is subjected to urethane anesthesia (1.0 g/kg s.c.), followed by ligation of the ureter on the kidney side. A urethral catheter is allowed to remain in the bladder, and about 1.0 mL of physiological saline is injected into the bladder through the catheter to cause rhythmic bladder contraction. Intravesical pressure is measured by a pressure transducer. After rhythmic contraction continues stable for at least 5 minutes, the test compound is cumulatively administered from the external jugular vein. Five to ten minutes later, the intravesical pressure is measured. An inhibition ratio of bladder contraction is determined compared with the bladder contraction before administration of the test compound and the dose of the test compound required for 30% inhibition of the bladder contraction before administration is designated as ED30.
b. Test on Salivary Secretion in Rat
A male Wistar rat (160-190 g) is subjected to anesthesia with urethane (0.8 g/kg i.p.), and the test compound is administered (to the control group: solvent). Fifteen minutes later, 0.8 μmol/kg of oxotremorine is administered. In each case, the drug is administered through the femoral artery. The saliva secreted for 5 minutes after the administration of oxotremorine is collected and weighed. […]

## CN1[C@@H]2CC[C@H]1C[C@@H](OC(=O)C(CO)c1ccccc1)C2 (stereo partly shown) [atropine]
  ID50 value (salivary secretion) relative to ED30 value (rhythmic bladder contraction): substantially the same
